Data from US9346820B2, “HIV-1 protease inhibitors having gem-di-fluoro bicyclic P2-ligands” (priority 2013, dated 2016).

Assays:
HIV-1MDR/G = assay: microbe, parasite or virus in culture; assay type: cell-based; conditions: Human immunodeficiency virus 1, read-out: EC50 HIV-1MDR/G (X4)
Procedure: (§1) All primary HIV-1 strains were passaged once or twice in 3-day-old phytohemagglutinin activated peripheral blood mononuclear cells (PHA-PBM), and the culture supernatants were stored at −80° C. until use.
(§2) The susceptibility of HIV-1LAI to various drugs was determined as previously described with minor modifications. Briefly, MT-2 cells (10^4/ml) were exposed to 100 50% tissue culture infectious doses (TCID50) of HIV-1LAI in the presence or absence of various concentrations of drugs in 96-well microculture plates and were incubated at 37° C. for 7 days. After 100 μl of the medium was removed from each well, 3-(4,5-dimetylthiazol-2-yl)-2,5-diphenyltetrazolium bromide (MTT) solution (10 μl, 7.5 mg/ml in phosphate-buffered saline) was added to each well in the plate, followed by incubation at 37° C. for 2 h. […] All assays were performed in duplicate or triplicate. […] To determine the sensitivity of primary HIV-1 isolates to drugs, phytohemagglutinin-stimulated peripheral blood mononuclear cells (PHA-PBMC) (10^6/ml) were exposed to 50 TCID50 of each primary HIV-1 isolate and cultured in the presence or absence of various concentrations of drugs in 10-fold serial dilutions in 96-well microculture plates. In determining the drug susceptibility of certain laboratory HIV-1 strains, MT-4 cells were employed as target cells as previously described with minor modifications. In brief, MT-4 cells (10^5/ml) were exposed to 100 TCID50 of drug-resistant HIV-1 strains in the presence or absence of various concentrations of drugs and were incubated at 37° C. On day 7 of culture, the supernatants were harvested and the amounts of p24 Gag protein were determined by using a fully automated chemiluminescent enzyme immunoassay system (Lumipulse F: Fujirebio Inc., Tokyo). […] All assays were performed in duplicate or triplicate. PHA-PBMs were derived from a single donor in each independent experiment. Thus, for obtaining the data, three different donors were recruited.

HIV-1MDR/JSL = assay: microbe, parasite or virus in culture; assay type: cell-based; conditions: Human immunodeficiency virus 1, read-out: EC50 HIV-1MDR/JSL (R5)
Procedure: as §1, §2

HIV-1MDR/MM = assay: microbe, parasite or virus in culture; assay type: cell-based; conditions: Human immunodeficiency virus 1, read-out: EC50 HIV-1MDR/MM (R5)
Procedure: as §1, §2

HIV-1MDR/TM = assay: microbe, parasite or virus in culture; assay type: cell-based; conditions: Human immunodeficiency virus 1, read-out: EC50 HIV-1MDR/TM (X4)
Procedure: as §1, §2

HIV-1MDR/B = assay: microbe, parasite or virus in culture; assay type: cell-based; conditions: Human immunodeficiency virus 1, read-out: EC50 HIV-1MDR/B (X4)
Procedure: as §1, §2

HIV-1MDR/C = assay: microbe, parasite or virus in culture; assay type: cell-based; conditions: Human immunodeficiency virus 1, read-out: EC50 HIV-1MDR/C (X4)
Procedure: as §1, §2

HIV-1NL4-3 = assay: p24 Gag production inhibition in MT-4 cells, wild-type laboratory strain; assay type: cell-based; conditions: Human immunodeficiency virus 1, MT4; MT-4 cells, p24 Gag endpoint; read-out: EC50 HIV-1NL4-3
Procedure: as §2

HIV-1APV^R5μM = assay: microbe, parasite or virus in culture; assay type: cell-based; conditions: Human immunodeficiency virus 1, MT4, read-out: EC50 HIV-1APV^R5μM
Procedure: as §2

HIV-1ATV^R5μM = assay: microbe, parasite or virus in culture; assay type: cell-based; conditions: Human immunodeficiency virus 1, MT4, read-out: EC50 HIV-1ATV^R5μM
Procedure: as §2

HIV-1SQV^R5μM = assay: microbe, parasite or virus in culture; assay type: cell-based; conditions: Human immunodeficiency virus 1, MT4, read-out: EC50 HIV-1SQV^R5μM
Procedure: as §2

HIV-1LPV^R5μM = assay: microbe, parasite or virus in culture; assay type: cell-based; conditions: Human immunodeficiency virus 1, MT4, read-out: EC50 HIV-1LPV^R5μM
Procedure: as §2

HIV-1ERS104pre = assay: p24 Gag production inhibition in PHA-PBMs, wild-type clinical isolate; assay type: cell-based; conditions: Human immunodeficiency virus 1; PHA-PBMs, p24 Gag endpoint; read-out: EC50 HIV-1ERS104pre (X4)
Procedure: as §1, §2

[1] = tested on: HIV-1GRL-04810^RP18, and HIV-1GRL-05010^RP10; assay: p24 assay, the two GRL-selected variants taken together; assay type: cell-based; conditions: Human immunodeficiency virus 1, read-out: EC50 values against HIV-1GRL-04810^RP18 and HIV-1GRL-05010^RP10
Procedure: as §2

[2] = Cytotoxicity (CC50), MTT assay; assay type: cell-based; conditions: human; 50% cytotoxicity; read-out: CC50
Procedure: The susceptibility of HIV-1LAI to various drugs was determined as previously described with minor modifications. Briefly, MT-2 cells (10^4/ml) were exposed to 100 50% tissue culture infectious doses (TCID50) of HIV-1LAI in the presence or absence of various concentrations of drugs in 96-well microculture plates and were incubated at 37° C. for 7 days. After 100 μl of the medium was removed from each well, 3-(4,5-dimetylthiazol-2-yl)-2,5-diphenyltetrazolium bromide (MTT) solution (10 μl, 7.5 mg/ml in phosphate-buffered saline) was added to each well in the plate, followed by incubation at 37° C. for 2 h. […] All assays were performed in duplicate or triplicate. […] In determining the drug susceptibility of certain laboratory HIV-1 strains, MT-4 cells were employed as target cells as previously described with minor modifications. In brief, MT-4 cells (10^5/ml) were exposed to 100 TCID50 of drug-resistant HIV-1 strains in the presence or absence of various concentrations of drugs and were incubated at 37° C. On day 7 of culture, the supernatants were harvested and the amounts of p24 Gag protein were determined by using a fully automated chemiluminescent enzyme immunoassay system (Lumipulse F: Fujirebio Inc., Tokyo). […] All assays were performed in duplicate or triplicate. PHA-PBMs were derived from a single donor in each independent experiment. Thus, for obtaining the data, three different donors were recruited.

HIV-1GRL05010^RP10 = assay: microbe, parasite or virus in culture; assay type: cell-based; conditions: Human immunodeficiency virus 1, MT4, read-out: EC50 HIV-1GRL05010^RP10
Procedure: as §2
(§3) The amounts of p24 were measured every two days for up to 7 days.

HIV-1GRL04810^RP18 = assay: microbe, parasite or virus in culture; assay type: cell-based; conditions: Human immunodeficiency virus 1, MT4, read-out: EC50 HIV-1GRL04810^RP18
Procedure: as §2, §3

[3] = tested on: triple culture of rat-derived astrocytes, pericytes and monkey-derived endothelial cells; assay: Apparent BBB permeability coefficient, in vitro BBB model (BBB Kit); conditions: 100 μM on luminal (blood) side, 30 min, brain side measured at 230 nm
Procedure: (§4) The BBB Kit™ was kept at −80° C. until thawing on day 0 of the experiments. Nutritional medium was added to both brain and blood sides of the wells. This solution consists of DMEM F-12 medium with FCS 10% v/v, heparin 100 μg/ml, basic fibroblast growth factor (bFGF) 1.5 ng/ml, insulin 5 μg/ml, transferrin 5 μg/ml, sodium selenite 5 ng/ml, hydrocortisone 500 nM and gentamycin 50 μg/ml. Fresh medium was added 3 hours after thawing following the manufacturer's instructions, and 24 hours later. The plates were incubated at 37° C. until day 4 of the experiment when the condition of astrocytes was checked under a light microscope. Following this, the integrity of the collagen-coated membrane was verified by the measurement of the transendothelial electrical resistance (TEER) using an ohmmeter provided by the manufacturer. […] Detailed information regarding the components of the BBB Kit as well as its mechanisms can be seen by accessing the manufacturer's website http://www.pharmacocell.co.jp/en/bbb/index_e.html.
(§5) Standard curves were generated for each compound on a light spectrophotometer as previously described. 100 μM of each compound was added to the luminal (blood side) of the wells, incubated at 37° C. for 30 minutes and then, the amount of drug that crossed the in vitro BBB was collected and measured under a light spectrophotometer at 230 nanometer absorbances.
(§6) Papp was calculated using the following mathematical formula: […]
(§7) This model (BBB Kit™) is thought to represent an in vitro BBB model for drug transport assays, permitting an adequate cross-talk of the cell lines involved and provide a way to test an apparent passage of small molecules across the BBB as previously described by Nakagawa et al. (41). […] The concentrations of each compound that permeated into the abluminal interface (termed “brain side”) were determined using a spectrophotometer, 30 min after the addition of each drug to the wells.
(§8) The mathematical formula used for the calculation of Papp is described in Materials and Methods.

[4] = as above; conditions: rat and monkey
Procedure: as §4, §5, §6, §7, §8

HIV-1LAI = assay: Antiviral activity of brain-side medium from the BBB assay, MTT assay in MT-2 cells; assay type: cell-based; conditions: HIV-1LAI
Procedure: The “brain-side” of the medium containing a compound collected in the BBB in vitro assay, was subjected to antiviral assays. Two HIV-1 isolates were employed, HIV-1LAI (Panel A) and HIV-1ERS104pre (Panel B). […] Dilution ranges were between 10-fold and 10,000-fold, and the percentage of viral inhibition was used as an endpoint. […] Assays were conducted in duplicate and error bars show standard deviations.
The assay was carried out using 10, 100, 1000 and 10000 times-diluted brain-side stocks of compounds.

**Q.** With `CC(C)CN(C[C@@H](O)[C@H](Cc1ccccc1)NC(=O)O[C@H]1CCOC1)S(=O)(=O)c1ccc(N)cc1` [APV, Amprenavir] as the compound, how does the EC50 (HIV-1MDR/G) read?
**A.** 310 nM

**Q.** And the EC50 (HIV-1MDR/JSL)?
**A.** 630 nM

**Q.** What about the EC50 (HIV-1MDR/MM) of the same compound?
**A.** 270 nM

**Q.** And the EC50 (HIV-1MDR/TM)?
**A.** 328 nM

**Q.** And the EC50 (HIV-1MDR/B)?
**A.** 490 nM

**Q.** What about the EC50 (HIV-1MDR/C) of the same compound?
**A.** 210 nM

**Q.** And the EC50 (HIV-1NL4-3)?
**A.** 81 nM

**Q.** And the EC50 (HIV-1APV^R5μM)?
**A.** > 1000 nM

**Q.** And the EC50 (HIV-1ATV^R5μM)?
**A.** > 1000 nM

**Q.** What about the EC50 (HIV-1SQV^R5μM) of the same compound?
**A.** 435 nM

**Q.** What about the EC50 (HIV-1LPV^R5μM) of the same compound?
**A.** 33 nM

**Q.** What about the EC50 (HIV-1ERS104pre) of the same compound?
**A.** 29.5 nM

**Q.** And the EC50 [1]?
**A.** > 1000 nM

**Q.** And the CC50 at 7 days [2]?
**A.** > 100000 nM

**Q.** And the EC50 (HIV-1GRL05010^RP10)?
**A.** > 1000 nM

**Q.** What about the EC50 (HIV-1GRL04810^RP18) of the same compound?
**A.** > 1000 nM

**Q.** What does the source list for `Cn1c(=O)c2c(ncn2C)n(C)c1=O` [caffeine]?
**A.** Final abluminal tracer concentration [3]: 6.60 µM; Papp at 30 min, 100 μM [4]: 100 ×10⁻⁶ cm/s

**Q.** For `CC(C)(C)NC(=O)[C@@H]1CN(Cc2cccnc2)CCN1C[C@@H](O)C[C@@H](Cc1ccccc1)C(=O)N[C@H]1c2ccccc2C[C@H]1O` [IDV, Indinavir], which “suppression levels of brain-side preparations compared (FIG. 5A)” value (HIV-1LAI) is on record?
**A.** less than those of GRL-04810^brain and GRL-05010^brain

**Q.** For `Cc1cccc(C)c1OCC(=O)N[C@@H](Cc1ccccc1)[C@@H](O)C[C@H](Cc1ccccc1)NC(=O)[C@H](C(C)C)N1CCCNC1=O` [LPV, Lopinavir], which EC50 (HIV-1MDR/JSL) is on record?
**A.** > 1000 nM

**Q.** And the EC50 (HIV-1NL4-3)?
**A.** 35 nM

**Q.** And the EC50 (HIV-1LPV^R5μM)?
**A.** > 1000 nM

**Q.** And the EC50 (HIV-1ERS104pre)?
**A.** 33 nM

**Q.** And the CC50 at 7 days [2]?
**A.** 26800 ± 900 nM
